Experimental data published in ChEMBL document CHEMBL1201862, “PubChem BioAssay data set” (2004).
“And” between values parts separate entries of the source, which are not always exact repeats. Equal values may be shown once. The source made the active and inactive calls.

Key:
[1] = biological target: Nucleotide-binding oligomerization domain-containing protein 2 (Homo sapiens, UniProt Q9HC29); test: inhibition of NOD2-driven NF-kB reporter – cell-based, luminescence, uHTS, HEK293 (AID 1566); format: functional
HEK293 = test: inhibition of NOD1-driven NF-kB reporter – cell-based, luminescence, uHTS, primary screen (AID 1578); format: functional; settings: Homo sapiens
[2] = non-specific 3'UTR reporter inhibition in Clone20-Shn3RL – cell-based, Renilla luciferase, cherry-picked, counter-screen for Shn3 inhibitor project, dose response (AID 624133); format: functional
[3] = biological target: Peroxisome proliferator-activated receptor gamma/Nuclear receptor corepressor 2 (Homo sapiens, UniProt P37231+Q9Y618); format: functional
[4] = biological target: Calcium/calmodulin-dependent protein kinase type II subunit beta (Homo sapiens, UniProt Q13554); format: functional
[5] = biological target: Proto-oncogene tyrosine-protein kinase ROS (Homo sapiens, UniProt P08922); format: functional;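 further: ROS1 tested as one member of a kinome-wide kinase panel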
[6] = biological target: High affinity nerve growth factor receptor (Homo sapiens, UniProt P04629); format: functional;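 further: NTRK1 tested as one member of a kinome-wide profiling panel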
Chain of High affinity nerve growth factor receptor (P04629 whole entry): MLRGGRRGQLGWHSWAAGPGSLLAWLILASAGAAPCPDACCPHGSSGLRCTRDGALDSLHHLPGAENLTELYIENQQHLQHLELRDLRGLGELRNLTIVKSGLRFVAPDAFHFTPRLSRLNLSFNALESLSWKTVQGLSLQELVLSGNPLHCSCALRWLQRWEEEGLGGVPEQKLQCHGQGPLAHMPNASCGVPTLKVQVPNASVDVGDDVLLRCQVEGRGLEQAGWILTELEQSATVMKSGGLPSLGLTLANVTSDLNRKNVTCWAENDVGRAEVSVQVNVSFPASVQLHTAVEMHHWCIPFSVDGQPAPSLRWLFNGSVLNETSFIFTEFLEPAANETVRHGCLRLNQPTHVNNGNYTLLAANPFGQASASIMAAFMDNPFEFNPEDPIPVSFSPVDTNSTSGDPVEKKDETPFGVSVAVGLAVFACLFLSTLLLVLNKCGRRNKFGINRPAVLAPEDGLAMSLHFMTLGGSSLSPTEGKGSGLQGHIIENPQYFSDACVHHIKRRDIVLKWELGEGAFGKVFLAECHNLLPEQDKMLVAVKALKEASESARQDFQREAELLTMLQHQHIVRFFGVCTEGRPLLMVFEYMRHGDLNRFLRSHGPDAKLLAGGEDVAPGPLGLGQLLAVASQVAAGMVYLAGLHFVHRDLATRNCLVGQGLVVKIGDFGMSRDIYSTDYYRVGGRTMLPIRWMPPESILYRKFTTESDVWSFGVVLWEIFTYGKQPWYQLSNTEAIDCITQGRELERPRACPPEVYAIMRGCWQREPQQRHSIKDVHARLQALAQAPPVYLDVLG

[7] = biological target: cAMP-dependent protein kinase catalytic subunit alpha (Homo sapiens, UniProt P17612); format: functional
[8] = biological target: Cyclin-dependent kinase 1 (Homo sapiens, UniProt P06493); format: functional;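 further: Kinome-wide panel profiling, with the target listed as panel member CDC2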
[9] = biological target: Mitogen-activated protein kinase 8 (Homo sapiens, UniProt P45983); format: functional;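 further: value comes from one member of a kinome-wide kinase profiling panel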
[10] = biological target: Mast/stem cell growth factor receptor Kit (Homo sapiens, UniProt P10721); format: functional;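 further: KIT entry within a kinase panel assay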
[11] = biological target: Receptor tyrosine-protein kinase erbB-2 (Homo sapiens, UniProt P04626); test: Navigating the Kinome. Panel member name: ERBB2; format: functional
Ephrin type-A receptor 2 = Ephrin type-A receptor 2 (Homo sapiens, UniProt P29317); format: functional;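 further: EPHA2 tested as one member of a kinome-wide kinase panel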
[12] = biological target: Glycogen synthase kinase-3 alpha (Homo sapiens, UniProt P49840); format: functional;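 further: GSK3A result taken from a broad kinome-wide kinase panel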
[13] = biological target: Lymphokine-activated killer T-cell-originated protein kinase (Homo sapiens, UniProt Q96KB5); format: functional;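 further: value comes from a kinase panel screen in which TOPK was one of the panel members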
[14] = biological target: Protein kinase C zeta type (Homo sapiens, UniProt Q05513); format: functional;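 further: measured as one member of a broad kinase profiling panel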
[15] = biological target: Rho-associated protein kinase 1 (Homo sapiens, UniProt Q13464); format: functional;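 further: measured within a broad kinome-wide panel profiling many kinases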
Chain of Rho-associated protein kinase 1 (Q13464 whole entry): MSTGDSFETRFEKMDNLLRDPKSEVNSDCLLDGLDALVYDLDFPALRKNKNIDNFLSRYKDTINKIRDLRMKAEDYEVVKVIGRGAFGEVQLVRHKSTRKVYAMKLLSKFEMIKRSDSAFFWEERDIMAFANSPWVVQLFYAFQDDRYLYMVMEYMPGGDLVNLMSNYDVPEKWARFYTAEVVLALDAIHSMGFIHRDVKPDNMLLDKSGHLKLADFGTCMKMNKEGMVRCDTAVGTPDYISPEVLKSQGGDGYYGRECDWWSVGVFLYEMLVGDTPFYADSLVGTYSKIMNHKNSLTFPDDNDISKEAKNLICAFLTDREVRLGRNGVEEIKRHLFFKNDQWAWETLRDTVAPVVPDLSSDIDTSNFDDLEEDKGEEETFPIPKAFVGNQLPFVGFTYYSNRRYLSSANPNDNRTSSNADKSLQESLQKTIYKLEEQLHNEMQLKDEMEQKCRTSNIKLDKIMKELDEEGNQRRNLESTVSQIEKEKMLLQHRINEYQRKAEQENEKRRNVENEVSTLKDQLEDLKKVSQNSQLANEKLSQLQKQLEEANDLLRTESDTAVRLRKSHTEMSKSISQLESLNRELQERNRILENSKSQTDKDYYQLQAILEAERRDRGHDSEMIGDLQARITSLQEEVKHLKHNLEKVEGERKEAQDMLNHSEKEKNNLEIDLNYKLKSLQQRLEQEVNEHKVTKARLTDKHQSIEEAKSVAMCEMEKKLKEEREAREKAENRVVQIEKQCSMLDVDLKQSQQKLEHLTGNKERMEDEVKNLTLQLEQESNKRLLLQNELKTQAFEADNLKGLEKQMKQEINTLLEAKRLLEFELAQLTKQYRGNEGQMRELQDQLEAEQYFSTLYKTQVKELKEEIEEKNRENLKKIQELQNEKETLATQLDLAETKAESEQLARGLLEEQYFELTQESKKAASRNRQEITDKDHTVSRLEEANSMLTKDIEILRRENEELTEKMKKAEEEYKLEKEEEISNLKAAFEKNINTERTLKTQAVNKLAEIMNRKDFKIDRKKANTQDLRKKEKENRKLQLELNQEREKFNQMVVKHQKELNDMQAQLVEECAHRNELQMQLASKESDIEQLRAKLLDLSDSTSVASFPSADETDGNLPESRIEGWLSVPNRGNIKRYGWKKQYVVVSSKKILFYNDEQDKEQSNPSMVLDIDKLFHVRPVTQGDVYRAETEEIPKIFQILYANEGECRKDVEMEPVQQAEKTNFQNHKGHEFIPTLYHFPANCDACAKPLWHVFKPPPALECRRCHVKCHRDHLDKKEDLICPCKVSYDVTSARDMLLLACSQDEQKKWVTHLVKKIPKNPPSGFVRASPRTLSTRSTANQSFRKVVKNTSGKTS

[16] = biological target: MAP kinase-interacting serine/threonine-protein kinase 2 (Homo sapiens, UniProt Q9HBH9); format: functional
[17] = biological target: Interleukin-1 receptor-associated kinase 4 (Homo sapiens, UniProt Q9NWZ3); format: functional
[18] = biological target: Proto-oncogene tyrosine-protein kinase Src (Homo sapiens, UniProt P12931); format: functional;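 further: SRC entry within a kinome-wide kinase profiling panel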
Chain of Proto-oncogene tyrosine-protein kinase Src (P12931 2-536 limits assumed): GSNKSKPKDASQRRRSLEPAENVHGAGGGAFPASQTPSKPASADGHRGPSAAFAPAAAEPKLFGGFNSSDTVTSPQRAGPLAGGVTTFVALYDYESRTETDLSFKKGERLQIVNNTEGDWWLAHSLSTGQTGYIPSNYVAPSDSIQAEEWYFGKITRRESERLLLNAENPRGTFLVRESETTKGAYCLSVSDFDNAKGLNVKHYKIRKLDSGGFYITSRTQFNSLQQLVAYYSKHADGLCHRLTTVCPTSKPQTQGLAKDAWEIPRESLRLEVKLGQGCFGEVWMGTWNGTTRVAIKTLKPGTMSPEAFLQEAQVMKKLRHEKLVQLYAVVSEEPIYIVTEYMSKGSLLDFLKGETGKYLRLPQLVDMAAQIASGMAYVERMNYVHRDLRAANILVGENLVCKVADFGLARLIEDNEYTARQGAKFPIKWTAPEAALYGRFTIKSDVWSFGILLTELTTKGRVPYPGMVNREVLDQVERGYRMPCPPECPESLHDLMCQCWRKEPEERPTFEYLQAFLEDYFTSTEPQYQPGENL

[19] = biological target: Vascular endothelial growth factor receptor 1 (Homo sapiens, UniProt P17948); format: functional;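 further: measured within a kinome-wide profiling panel, FLT1 as the panel member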
[20] = biological target: Serine/threonine-protein kinase Nek2 (Homo sapiens, UniProt P51955); format: functional
[21] = biological target: Protein kinase C delta type (Homo sapiens, UniProt Q05655); format: functional
Chain of Protein kinase C delta type (Q05655 whole entry): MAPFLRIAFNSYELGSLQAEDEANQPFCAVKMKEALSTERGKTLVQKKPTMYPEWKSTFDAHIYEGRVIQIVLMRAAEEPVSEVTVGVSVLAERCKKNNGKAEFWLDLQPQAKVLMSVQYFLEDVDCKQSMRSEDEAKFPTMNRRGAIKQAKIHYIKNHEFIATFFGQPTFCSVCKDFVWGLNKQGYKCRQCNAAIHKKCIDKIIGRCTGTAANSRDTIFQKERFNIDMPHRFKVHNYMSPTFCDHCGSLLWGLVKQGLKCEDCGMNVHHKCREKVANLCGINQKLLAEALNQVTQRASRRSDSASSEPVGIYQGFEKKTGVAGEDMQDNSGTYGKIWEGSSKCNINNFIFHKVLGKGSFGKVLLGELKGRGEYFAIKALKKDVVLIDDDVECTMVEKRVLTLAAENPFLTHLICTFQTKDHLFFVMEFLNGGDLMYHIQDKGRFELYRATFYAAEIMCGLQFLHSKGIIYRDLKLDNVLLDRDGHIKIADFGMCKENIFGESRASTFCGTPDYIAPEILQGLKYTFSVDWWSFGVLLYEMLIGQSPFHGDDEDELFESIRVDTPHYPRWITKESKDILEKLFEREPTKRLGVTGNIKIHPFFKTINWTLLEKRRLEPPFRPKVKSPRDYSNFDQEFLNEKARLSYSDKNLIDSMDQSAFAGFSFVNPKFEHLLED

Aurora kinase B = Aurora kinase B (Homo sapiens, UniProt Q96GD4); format: functional
[22] = biological target: Serine/threonine-protein kinase TBK1 (Homo sapiens, UniProt Q9UHD2); test: Navigating the Kinome. Panel member name: TBK1; format: functional
[23] = biological target: Maternal embryonic leucine zipper kinase (Homo sapiens, UniProt Q14680); format: functional
[24] = biological target: Casein kinase I isoform delta (Homo sapiens, UniProt P48730); format: functional;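 further: measured as one member (CSNK1D) of a kinome panel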
Chain of Casein kinase I isoform delta (P48730 whole entry, canonical isoform): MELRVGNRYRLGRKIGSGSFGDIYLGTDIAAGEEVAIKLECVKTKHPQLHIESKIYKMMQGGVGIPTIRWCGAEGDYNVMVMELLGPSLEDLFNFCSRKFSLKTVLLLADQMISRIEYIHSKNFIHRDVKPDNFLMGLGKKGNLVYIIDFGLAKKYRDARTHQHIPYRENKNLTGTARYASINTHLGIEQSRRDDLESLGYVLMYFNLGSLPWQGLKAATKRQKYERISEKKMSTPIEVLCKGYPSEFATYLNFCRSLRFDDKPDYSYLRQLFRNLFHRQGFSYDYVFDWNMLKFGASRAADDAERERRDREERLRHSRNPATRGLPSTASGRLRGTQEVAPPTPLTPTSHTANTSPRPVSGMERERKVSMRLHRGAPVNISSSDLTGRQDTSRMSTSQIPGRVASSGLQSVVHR

[25] = biological target: Mitogen-activated protein kinase kinase kinase 20 (Homo sapiens, UniProt Q9NYL2); format: functional
[26] = biological target: Casein kinase I isoform gamma-1 (Homo sapiens, UniProt Q9HCP0); format: functional;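 further: measured as the CSNK1G1 member of a kinome profiling panel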
Chain of Casein kinase I isoform gamma-1 (Q9HCP0 whole entry, canonical isoform): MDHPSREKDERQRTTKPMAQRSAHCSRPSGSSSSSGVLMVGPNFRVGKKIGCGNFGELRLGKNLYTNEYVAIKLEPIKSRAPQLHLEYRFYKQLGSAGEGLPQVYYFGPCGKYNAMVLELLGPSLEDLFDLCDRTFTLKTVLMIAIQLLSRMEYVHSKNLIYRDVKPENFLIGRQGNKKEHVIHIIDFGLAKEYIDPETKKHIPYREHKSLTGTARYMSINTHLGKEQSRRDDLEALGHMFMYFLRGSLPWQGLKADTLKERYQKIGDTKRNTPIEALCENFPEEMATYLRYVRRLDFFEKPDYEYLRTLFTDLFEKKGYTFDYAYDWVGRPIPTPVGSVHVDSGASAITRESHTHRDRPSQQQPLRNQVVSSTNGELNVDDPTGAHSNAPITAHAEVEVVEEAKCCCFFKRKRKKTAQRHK

[27] = biological target: Serine/threonine-protein kinase PLK3 (Homo sapiens, UniProt Q9H4B4); format: functional
[28] = biological target: Serine/threonine-protein kinase TAO1 (Homo sapiens, UniProt Q7L7X3); format: functional
Activated CDC42 kinase 1 = Activated CDC42 kinase 1 (Homo sapiens, UniProt Q07912); test: Navigating the Kinome. Panel member name: ACK1; format: functional
[29] = biological target: Serine/threonine-protein kinase pim-2 (Homo sapiens, UniProt Q9P1W9); format: functional;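 further: value comes from a broad kinase panel profiling study in which PIM2 was one of the panel members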
Chain of Serine/threonine-protein kinase pim-2 (Q9P1W9 whole entry): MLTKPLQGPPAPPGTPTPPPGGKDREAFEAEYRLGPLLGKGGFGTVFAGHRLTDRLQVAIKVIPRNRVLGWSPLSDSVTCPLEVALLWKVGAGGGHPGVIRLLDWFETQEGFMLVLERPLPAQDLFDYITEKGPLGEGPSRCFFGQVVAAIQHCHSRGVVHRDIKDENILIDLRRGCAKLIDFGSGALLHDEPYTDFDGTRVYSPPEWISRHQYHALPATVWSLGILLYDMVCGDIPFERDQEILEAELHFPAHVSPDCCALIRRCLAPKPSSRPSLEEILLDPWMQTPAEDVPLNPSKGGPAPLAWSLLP

[30] = biological target: STE20-like serine/threonine-protein kinase (Homo sapiens, UniProt Q9H2G2); format: functional
[31] = biological target: cAMP-dependent protein kinase catalytic subunit PRKX (Homo sapiens, UniProt P51817); format: functional
Chain of cAMP-dependent protein kinase catalytic subunit PRKX (P51817 whole entry): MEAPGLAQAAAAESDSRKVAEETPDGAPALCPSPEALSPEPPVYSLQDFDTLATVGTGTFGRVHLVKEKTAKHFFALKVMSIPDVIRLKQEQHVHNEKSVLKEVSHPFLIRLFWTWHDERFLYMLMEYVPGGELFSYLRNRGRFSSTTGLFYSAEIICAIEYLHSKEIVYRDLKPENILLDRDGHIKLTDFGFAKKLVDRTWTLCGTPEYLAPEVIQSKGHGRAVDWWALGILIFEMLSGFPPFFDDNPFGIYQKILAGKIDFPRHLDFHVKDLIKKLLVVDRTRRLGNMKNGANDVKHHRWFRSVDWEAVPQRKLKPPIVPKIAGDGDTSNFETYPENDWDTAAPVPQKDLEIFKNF

[32] = biological target: cGMP-dependent protein kinase 1 (Homo sapiens, UniProt Q13976); format: functional;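 further: value from a kinome panel screen with PRKG1 as the panel member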
[33] = biological target: Homeodomain-interacting protein kinase 2 (Homo sapiens, UniProt Q9H2X6); format: functional;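 further: measured within a kinome-wide kinase profiling panel, HIPK2 being one panel member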
[34] = biological target: Proto-oncogene tyrosine-protein kinase receptor Ret (Homo sapiens, UniProt P07949); format: functional;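 further: measured within a kinome-wide profiling panel, RET as the panel member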
[35] = CellTiter-Glo luminescence survival assay, SW480 colon tumor line, concentration-response curve, half-maximal inhibitory concentration (AID 1117338); format: functional
[36] = glucagon-like peptide-1 release potency in STC-1, concentration-response, half-maximal inhibitory concentration in the STC-1 line (AID 1117345); format: functional, cell-based
[37] = biological target: T1, Calpain-2 catalytic subunit (Sus scrofa, UniProt P43367); test: m-calpain protease blockers, concentration series – biochemical, fluorogenic peptide substrate, dose response (AID 1420); format: functional
T1 sequence (P43367 whole entry): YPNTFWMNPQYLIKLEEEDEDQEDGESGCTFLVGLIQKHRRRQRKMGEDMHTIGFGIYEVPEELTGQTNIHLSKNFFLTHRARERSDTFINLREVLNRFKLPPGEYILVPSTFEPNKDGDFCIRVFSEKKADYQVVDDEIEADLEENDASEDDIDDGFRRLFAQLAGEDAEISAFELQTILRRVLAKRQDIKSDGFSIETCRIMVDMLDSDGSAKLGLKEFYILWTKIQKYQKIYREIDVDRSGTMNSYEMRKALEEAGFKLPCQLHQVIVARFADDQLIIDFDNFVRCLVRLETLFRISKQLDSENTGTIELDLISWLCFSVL

[38] = test system: Streptococcus sp. 'group A'; test: Streptococcus pyogenes SK(-)GAS viability under kanamycin – luminescence, BacTiterGlo, confirmation, counter-screen for streptokinase expression inhibitor project, dose response (AID 1900); format: functional, organism-based

## O=C1C=C(N2CCOCC2)c2ccccc2C1=O
[1]
  EC50: 13.3 µM (active)
HEK293
  EC50: 8.79 µM (active)
[2]
  AC50: 8.28 µM (active)
[3]
  IC50: > 39.8 µM (not active)

## N#Cc1ccc2[nH]c(O)c(-c3ccc(CN4CCOCC4)cn3)c2c1 [AZD-1080]
[4]
  Ki: > 7.94 µM (inactive)
[5]
  Ki: > 2 µM (inactive)
[6]
  Ki: > 2.51 µM (inactive)
[7]
  Ki: > 3.16 µM (inactive)
[8]
  Ki: 2 µM (active)
[9]
  Ki: > 5.01 µM (inactive)
[10]
  Ki: > 1.26 µM (inactive)
[11]
  Ki: > 1.58 µM (inactive)
Ephrin type-A receptor 2
  Ki: > 3.16 µM (inactive)
[12]
  Ki: > 2.51 µM (inactive)
[13]
  Ki: > 10 µM (inactive)
[14]
  Ki: > 7.94 µM (inactive)
[15]
  Ki: > 7.94 µM (inactive)
[16]
  Ki: > 10 µM (inactive)
[17]
  Ki: > 10 µM (inactive)
[18]
  Ki: > 2 µM (inactive)
[19]
  Ki: > 2.51 µM (inactive)
[20]
  Ki: > 10 µM (inactive)
[21]
  Ki: > 7.94 µM (inactive)
Aurora kinase B
  Ki: > 3.16 µM (inactive)
[22]
  Ki: > 3.16 µM (inactive)
[23]
  Ki: > 1.58 µM (inactive)
[24]
  Ki: > 7.94 µM (inactive)
[25]
  Ki: > 7.94 µM (inactive)
[26]
  Ki: > 6.31 µM (inactive)
[27]
  Ki: > 7.94 µM (inactive)
[28]
  Ki: > 7.94 µM (inactive)
Activated CDC42 kinase 1
  Ki: > 3.98 µM (inactive)
[29]
  Ki: > 1.58 µM (inactive)
[30]
  Ki: > 10 µM (inactive)
[31]
  Ki: > 2.51 µM (inactive)
[32]
  Ki: > 2 µM (inactive)
[33]
  Ki: > 3.16 µM (inactive)
[34]
  Ki: > 2.51 µM (inactive)

## CCc1oc2ccccc2c1C(=O)c1cc(Br)c(O)c(Br)c1 [BENZBROMARONE]
[35]
  IC50: 1.74 µM (active)
[36]
  IC50: > 40 µM (inactive)
[37]
  IC50: 7.97 µM (not active) and 4.88 µM (not active)
[38]
  EC50: 7.44 µM (active)
